Consider 21 compounds from BindingDB's records for doi:10.1021/cc100073a (Amgen, 2010).

Holding throughout (assay): PHD Enzymatic Assay
For one experiment, the target named is Egl nine homolog 1 (Homo sapiens, UniProt Q9GZT9). As to the method:
(§1) PHD1,2,3 activity was measured utilizing homogeneous time-resolved fluroescence energy transfer techology by detecting the trans-4-hydroxylatio of HIF-1alpha residue pro564 in biotin-hHIR-1alpha(558-574)(Biotin-DLEMLAPYIPMDDDFQL)peptide substrate resulting in a recognition by the Europium-tagged Von Hippel Lindau, Elongin B and Dlongin C heterotrimeric complex (VCB-Eu complex)

A further experiment concerns the target Prolyl hydroxylase EGLN2 (Homo sapiens, UniProt Q96KS0). The procedure:
as §1

For a further experiment, the target named is Prolyl hydroxylase EGLN3 (Homo sapiens, UniProt Q9H6Z9). As to the method: as §1
Prolyl hydroxylase EGLN3, sequence (Q9H6Z9 whole entry): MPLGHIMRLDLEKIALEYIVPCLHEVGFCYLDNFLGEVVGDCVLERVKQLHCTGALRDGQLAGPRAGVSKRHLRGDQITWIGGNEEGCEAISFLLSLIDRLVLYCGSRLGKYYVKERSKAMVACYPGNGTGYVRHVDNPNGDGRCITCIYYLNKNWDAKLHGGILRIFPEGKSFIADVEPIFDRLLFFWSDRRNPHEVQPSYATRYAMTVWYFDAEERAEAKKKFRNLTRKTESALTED

Several values for one entry are separate records, joined by “and”; a condition that tells them apart may be missing. Identical values can stand only once.

Egl nine homolog 1, sequence (Q9GZT9 whole entry): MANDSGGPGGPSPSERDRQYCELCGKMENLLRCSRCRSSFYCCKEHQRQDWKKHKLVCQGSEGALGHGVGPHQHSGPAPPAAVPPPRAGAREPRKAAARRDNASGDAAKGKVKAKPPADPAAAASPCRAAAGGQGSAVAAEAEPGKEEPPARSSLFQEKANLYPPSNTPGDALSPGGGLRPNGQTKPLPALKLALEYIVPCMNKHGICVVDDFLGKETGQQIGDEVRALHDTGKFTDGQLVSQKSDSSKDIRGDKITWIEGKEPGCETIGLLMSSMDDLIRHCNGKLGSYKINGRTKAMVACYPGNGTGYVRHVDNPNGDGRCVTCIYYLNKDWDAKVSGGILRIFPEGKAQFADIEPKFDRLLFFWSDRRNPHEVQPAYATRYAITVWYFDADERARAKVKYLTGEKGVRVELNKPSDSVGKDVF
Prolyl hydroxylase EGLN2, sequence (Q96KS0 whole entry): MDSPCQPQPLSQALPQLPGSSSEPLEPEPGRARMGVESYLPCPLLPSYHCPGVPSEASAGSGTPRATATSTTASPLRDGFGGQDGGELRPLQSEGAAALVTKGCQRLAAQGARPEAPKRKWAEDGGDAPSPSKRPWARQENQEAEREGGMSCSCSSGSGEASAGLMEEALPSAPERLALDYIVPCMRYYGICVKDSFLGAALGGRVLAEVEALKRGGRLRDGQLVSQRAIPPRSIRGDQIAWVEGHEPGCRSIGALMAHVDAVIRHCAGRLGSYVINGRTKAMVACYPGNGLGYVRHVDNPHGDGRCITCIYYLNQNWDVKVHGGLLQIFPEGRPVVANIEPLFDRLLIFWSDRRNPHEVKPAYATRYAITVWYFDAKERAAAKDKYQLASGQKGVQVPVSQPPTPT

`CC(=O)NCc1ccc2c(c1)c(O)c(C(=O)NCC(=O)O)c(=O)n2C` [PHD Inhibitor, 5] gave an IC50 on Egl nine homolog 1 of 546 nM.

`CC(=O)N[C@@H](Cc1ccccc1)C(=O)NCc1ccc2c(c1)c(O)c(C(=O)NCC(=O)O)c(=O)n2C` [PHD Inhibitor, 8{1}] displayed an IC50 on Egl nine homolog 1 of 482 nM.

`CC(=O)N[C@H](Cc1ccccc1)C(=O)NCc1ccc2c(c1)c(O)c(C(=O)NCC(=O)O)c(=O)n2C` [PHD Inhibitor, 8{2}] came in with a 50% inhibitory concentration (IC50) against Egl nine homolog 1 of 112 nM.

On to `CC(=O)N[C@H](CC(C)C)C(=O)NCc1ccc2c(c1)c(O)c(C(=O)NCC(=O)O)c(=O)n2C` [PHD Inhibitor, 8{3}], for which the midpoint of inhibition against Egl nine homolog 1, the IC50, lay at 521 nM.

`CC(=O)NCC(=O)NCc1ccc2c(c1)c(O)c(C(=O)NCC(=O)O)c(=O)n2C` [PHD Inhibitor, 8{4}]: inhibition on Egl nine homolog 1 was half-maximal at 293 nM (IC50).

`CC(=O)N[C@@H](CO)C(=O)NCc1ccc2c(c1)c(O)c(C(=O)NCC(=O)O)c(=O)n2C` [PHD Inhibitor, 8{5}] returned an IC50 against Egl nine homolog 1 of 265 nM. This IC50 and that of the compound before are within 1.5-fold of each other.

In the case of `CC(=O)N[C@@H](CC(=O)O)C(=O)NCc1ccc2c(c1)c(O)c(C(=O)NCC(=O)O)c(=O)n2C` [PHD Inhibitor, 8{6}], inhibition against Egl nine homolog 1 was half-maximal at 138 nM (IC50).

Regarding `CC(=O)N[C@@H](CCCCN)C(=O)NCc1ccc2c(c1)c(O)c(C(=O)NCC(=O)O)c(=O)n2C` [PHD Inhibitor, 8{7}], the IC50 against Egl nine homolog 1 was 409 nM.

Take `CC(=O)N[C@@H](Cc1ccc2ccccc2c1)C(=O)N[C@@H](Cc1ccccc1)C(=O)NCc1ccc2c(c1)c(O)c(C(=O)NCC(=O)O)c(=O)n2C` [PHD Inhibitor, 12{1,1,2}]: the figures for the IC50 against Prolyl hydroxylase EGLN2, against Prolyl hydroxylase EGLN3 and against Egl nine homolog 1 were 4.3 nM, 4.5 nM and 35 nM, respectively.

Turning to `Cn1c(=O)c(C(=O)NCC(=O)O)c(O)c2cc(CNC(=O)[C@H](Cc3ccccc3)NC(=O)[C@H](Cc3ccccc3)NC(=O)CCN3CCOCC3)ccc21` [PHD Inhibitor, 12{1,5,3}], the IC50 against Prolyl hydroxylase EGLN2 was 95 nM; at Prolyl hydroxylase EGLN3 it was 165 nM; against Egl nine homolog 1, 2920 nM.

Regarding `CC(=O)N[C@H](Cc1ccc2ccccc2c1)C(=O)N[C@H](Cc1ccccc1)C(=O)NCc1ccc2c(c1)c(O)c(C(=O)NCC(=O)O)c(=O)n2C` [PHD Inhibitor, 12{2,1,2}], the IC50 amounted to 13.5 nM against Prolyl hydroxylase EGLN2, 6.4 nM against Prolyl hydroxylase EGLN3 and 93.8 nM on Egl nine homolog 1.

Turning to `Cn1c(=O)c(C(=O)NCC(=O)O)c(O)c2cc(CNC(=O)[C@@H](Cc3ccccc3)NC(=O)[C@@H](Cc3ccc4ccccc4c3)NC(=O)C(C)(C)C)ccc21` [PHD Inhibitor, 12{2,1,4}], the half-maximal inhibitory concentration (IC50) is 60.8 nM against Prolyl hydroxylase EGLN2, 18.8 nM on Prolyl hydroxylase EGLN3 and 308 nM against Egl nine homolog 1.

As to `Cn1c(=O)c(C(=O)NCC(=O)O)c(O)c2cc(CNC(=O)[C@@H](Cc3ccccc3)NC(=O)C[C@H](Cc3ccccc3)NC(=O)c3ccccc3)ccc21` [PHD Inhibitor, 12{2,3,1}], the values for the IC50 on Prolyl hydroxylase EGLN2, on Prolyl hydroxylase EGLN3 and against Egl nine homolog 1 were 49 nM, 40 nM and 1560 nM, respectively.

As to `CC(=O)N[C@H](Cc1ccccc1)C(=O)N[C@H](Cc1ccccc1)C(=O)NCc1ccc2c(c1)c(O)c(C(=O)NCC(=O)O)c(=O)n2C` [PHD Inhibitor, 12{2,3,2}], the IC50 against Prolyl hydroxylase EGLN2 is 7.2 nM and 12.2 nM; against Prolyl hydroxylase EGLN3 it was 11.7 nM and 13.5 nM; against Egl nine homolog 1 it was 37.4 nM and 90.2 nM.

Regarding `Cn1c(=O)c(C(=O)NCC(=O)O)c(O)c2cc(CNC(=O)[C@@H](Cc3ccccc3)NC(=O)[C@@H](Cc3ccccc3)NC(=O)C(C)(C)C)ccc21` [PHD Inhibitor, 12{2,3,4}], the IC50 on Prolyl hydroxylase EGLN2 was 12.9 nM and 14.6 nM; at Prolyl hydroxylase EGLN3, 12.6 nM and 13.2 nM; against Egl nine homolog 1, 86.4 nM and 104 nM.

On to `Cn1c(=O)c(C(=O)NCC(=O)O)c(O)c2cc(CNC(=O)[C@@H](Cc3ccccc3)NC(=O)[C@@H](Cc3ccccc3)NC(=O)c3ccccc3)ccc21` [PHD Inhibitor, 12{2,4,1}], for which the half-inhibitory concentration (IC50) is 22 nM and 8.5 nM at Prolyl hydroxylase EGLN2; 20 nM and 5.3 nM on Prolyl hydroxylase EGLN3.

Turning to `CC(=O)N[C@@H](Cc1ccccc1)C(=O)N[C@H](Cc1ccccc1)C(=O)NCc1ccc2c(c1)c(O)c(C(=O)NCC(=O)O)c(=O)n2C` [PHD Inhibitor, 12{2,5,2}], the IC50 against Prolyl hydroxylase EGLN2 came out at 7.6 nM; at Prolyl hydroxylase EGLN3, 8.9 nM; against Egl nine homolog 1, 44.8 nM.

For the compound `CC(=O)N[C@@H](CC(C)C)C(=O)N[C@H](Cc1ccccc1)C(=O)NCc1ccc2c(c1)c(O)c(C(=O)NCC(=O)O)c(=O)n2C` [PHD Inhibitor, 12{2,6,2}], the IC50 turned out to be 11 nM on Prolyl hydroxylase EGLN2, 16.2 nM at Prolyl hydroxylase EGLN3 and 67.5 nM on Egl nine homolog 1.

Consider `CC(C)C[C@@H](NC(=O)C(C)(C)C)C(=O)N[C@H](Cc1ccccc1)C(=O)NCc1ccc2c(c1)c(O)c(C(=O)NCC(=O)O)c(=O)n2C` [PHD Inhibitor, 12{2,6,4}], for which the IC50 at Prolyl hydroxylase EGLN2 turned out to be 14.5 nM; against Prolyl hydroxylase EGLN3, 16.8 nM; against Egl nine homolog 1 it was 113 nM.

With `CC(C)C[C@H](NC(=O)[C@H](Cc1cccc2ccccc12)NC(=O)C(C)(C)C)C(=O)NCc1ccc2c(c1)c(O)c(C(=O)NCC(=O)O)c(=O)n2C` [PHD Inhibitor, 12{3,1,4}], the IC50 stood at 32 nM against Prolyl hydroxylase EGLN2, 77 nM against Prolyl hydroxylase EGLN3 and 1100 nM against Egl nine homolog 1.

As for `CC(=O)N[C@@H](Cc1ccc2ccccc2c1)C(=O)NCC(=O)NCc1ccc2c(c1)c(O)c(C(=O)NCC(=O)O)c(=O)n2C` [PHD Inhibitor, 12{4,1,2}], the IC50 at Prolyl hydroxylase EGLN2 is 5.1 nM; at Prolyl hydroxylase EGLN3, 13.5 nM; on Egl nine homolog 1, 41.9 nM.

The term IC50 denotes the point on the concentration scale where inhibition reaches its midpoint. A higher IC50 goes with weaker potency in that assay.
